Measured values from patent US8198327B2, “Fatty acid amides and uses thereof” (Yissum Research Development Company of the Hebrew …, priority 2008, dated 2012).
Entries after “also recorded” stand apart in the source; their conditions may differ. Read-outs that look alike come from different tables or passages of the source.

Columns and labels:
[1] = system: MC3T3 E1 osteoblastic cells; test: MC3T3 E1 osteoblastic cell assay (cell number / proliferation); assay type: cell-based
Text: FIGS. 1(A)-1(F) are graphical depictions of screening of fatty acid derivatives identified in brain for proliferative activity in MC3T3 E1 osteoblastic cells. (A), oleoyl-serine (HU-639); (B), palmitoyl-serine; (C), arachidonoyl-serine (HU-362); (D), arachidonoyl-ethanolamide; (E), palmitoyl-ethanolamide; (F), 2-arachidonoylglycerol. Data are mean±SE obtained in 3 culture wells per condition.
FIG. 9 represents methylated oleoyl-serine (HU-639) derivatives α-methyl oleoyl serine (HU-671) and 2-methyl-oleoyl serine (HU-681)) stimulation of MC3T3 E1 osteoblastic cell number at concentration 10- to 100-fold lower than HU-639. Data are mean±SE obtained in 3 culture wells per condition. *, ANOVA, p<0.05 vs. ligand-free control (Cntl).
(§1) Several lipid compounds present in the brain stimulated the proliferation of MC3T3 E1 osteoblast-like cells in vitro (FIG. 1). […] The HU-639 mitogenic effect was confirmed measuring BrdU incorporation in the MC3T3 E1 cells and in primary calvarial osteoblasts (FIG. 4A). […] Typical of some osteoblast mitogenic agents [Miguel et al, 2005], the dose-response curves representing oleoyl-serine (HU-639) activity in culture are bell shaped, with the peak stimulation of cell number followed by reversal of the effect to baseline levels (FIGS. 4A, 4B).
The oleoyl-serine derivatives α-methyl oleoyl serine (HU-671) and 2-methyl-oleoyl serine (HU-681) were tested in the MC3T3 E1 osteoblastic cell assay, HU-671 and HU-681 stimulated cell number with respective peak effects at 10^−12 M and 10^−13 M as compared to 10^−11 M of the parent HU-639 molecule (FIG. 9).

[2] = system: osteoblasts; test: Blockade of oleoyl-serine (HU-639) mitogenic activity in osteoblasts; assay type: cell-based; conditions: MEK inhibitor, inhibition of Erk1/2 phosphorylation
Text: (§2) FIGS. 4(A)-4(E) represents signaling of oleoyl-serine (HU-639) in osteoblasts. *, ANOVA, p<0.05 vs. oleoyl-serine (HU-639)-free control (Cntl).
as §1

[3] = system: RANKL expression; test: RT-PCR analysis of RANKL expression in bone marrow-derived primary stromal cells; assay type: cell-based
Text: (§3) (A), number of intact osteoclasts with the use of oleoyl-serine (HU-639); (B), number of apoptotic osteoclasts; (C), representative photomicrograph of culture oleoyl-serine (HU-639)-free control culture; (D), representative photomicrograph of culture treated with 10^−10 M oleoyl-serine (HU-639); (E), immunoblot analysis of Erk1/2 phosphorylation in preosteoclast-like RAW 264.7 cells. (F), RT-PCR analysis of RANKL and OPG expression in bone marrow-derived primary stromal cells. Quantitative data are mean±SE obtained in 3 culture wells per condition. Arrows indicate, apoptotic osteoclasts; *, ANOVA, p<0.05 vs. oleoyl-serine (HU-639)-free control (Cntl).
(§4) This inhibition is likely to have a restraining effect on osteoclast survival [Kim et al, 2009].

[4] = system: Erk1/2 phosphorylation; test: Immunoblot analysis of Erk1/2 phosphorylation in preosteoclast-like RAW 264.7 cells; assay type: cell-based
Text: as §3, §4

[5] = system: Erk1/2 phosphorylation; test: Erk1/2 phosphorylation in osteoblasts; assay type: cell-based
Text: as §2, §1

[6] = system: ovariectomized (OVX) mice; test: Ovariectomy (OVX) mouse model of osteoporosis, microCT and histomorphometry of distal femoral metaphysis; assay type: in vivo
Protocol: FIG. 6 oleoyl-serine (HU-639) rescues ovariectomy (OVX)-induced trabecular bone loss in mouse distal femoral metaphysis. Mice were OVXed or sham-OVXed and left untreated for 6 weeks to allow for bone loss. Thereafter, OVXed mice were treated by i.p. administration of oleoyl-serine (HU-639), 5 mg/Kg/day for 6 weeks and subjected to qualitative and quantitative analysis by microcomputed tomography. BV/TV, trabecular bone volume density. VEH, ethanol/emulphor/saline solvent. Data are mean±SE obtained in 6-8 mice per condition.
VEH, ethanol/emulphore/saline solvent. Histomorphometric analysis based on vital labeling of newly formed bone by calcein. Data are mean±SE obtained in 6-8 mice per condition. *, ANOVA, p<0.05 vs. Sham-OVX.
VEH, ethanol/emulphore/saline solvent. Osteoclast counts were based on osteoclast specific staining with tartrate-resistant acid phosphatase. Data are mean±SE obtained in 6-8 mice per condition. *, ANOVA, p<0.05 vs. Sham-OVX and OVX/VEH.
Based on the in vitro screening, the in vivo skeletal activity of oleoyl-serine (HU-639) in an ovariectomy (removal of ovaries; OVX) mouse model, the most widely used animal model for osteoporosis, was analyzed. Using this experimental system for testing bone anabolic activity, OVXed mice are left untreated to allow for bone loss to occur, followed by a treatment period intended for reversal of the bone loss [Alexander et al, 2001]. […] To further elucidate the process leading to the oleoyl-serine (HU-639) rescue of OVX-induced bone loss, the same mice were subjected to an analysis of bone formation and resorption by computerized histomorphometry (HM).

[7] = system: MC3T3 E1 cells; test: BrdU incorporation in MC3T3 E1 cells; assay type: cell-based
Text: as §1

[8] = system: osteoclasts; test: Osteoclast survival in ex vivo culture of bone marrow-derived monocytes with M-CSF and RANKL; assay type: cell-based, mouse; conditions: 4 days with M-CSF and RANKL
Text: as §3, §4

[9] = system: primary calvarial osteoblasts; test: BrdU incorporation in primary calvarial osteoblasts; assay type: cell-based
Text: as §1

Q: How did the “concentration of peak effect on cell number” value (“concentration of peak effect” for short) [1] turn out when `CCCCCCCC/C=C\CCCCCCC(C)C(=O)N[C@@H](CO)C(=O)O` (stereo partly drawn) [HU-681, 2-Methyl Oleoyl-L-Serine] was run?
A: 10^−13 M

Q: For `COc1cccc(-c2cc(=O)c3ccccc3o2)c1N` [PD98059], which “blockade of oleoyl-serine (HU-639) mitogenic activity” value [2] is on record?
A: blocks the oleoyl-serine (HU-639) mitogenic activity dose-dependently

Q: For `CCCCC/C=C\C/C=C\C/C=C\C/C=C\CCCC(=O)NCCO` [anandamide, arachidonoyl ethanolamide, reference compound], which “osteoblastic proliferation activity / potency” value [1] is on record?
A: some osteoblastic proliferation activity

Q: Which “concentration of peak effect” value [1] does the source give for `CCCCCCCC/C=C\CCCCCCCC(=O)NC(C)(CO)C(=O)O` (racemic) [HU-671, N-oleoly α-methyl-DL-serine] here?
A: 10^−12 M

Q: Which “osteoblastic proliferation activity / potency” value [1] does the source give for `CCCCCCCCCCCCCCCC(=O)NCCO` [palmitoyl ethanolamide, reference compound] here?
A: some osteoblastic proliferation activity

Q: How did the “osteoblastic proliferation activity / potency” value [1] turn out when `CCCCC/C=C\C/C=C\C/C=C\C/C=C\CCCC(=O)N[C@@H](CO)C(=O)O` [arachidonoyl serine, N-arachidonoyl-serine, reference compound] was run?
A: some osteoblastic proliferation activity

Q: For `CCCCCCCC/C=C\CCCCCCCC(=O)N[C@@H](CO)C(=O)O` [HU-639, N-Oleoyl L-Serine], which RANKL expression [3] is on record?
A: inhibits RANKL expression

Q: What about the Erk phosphorylation [4] of the same molecule?
A: reduced Erk phosphorylation, mainly p42

Q: What about the Erk1/2 phosphorylation [5] of the same molecule?
A: stimulates Erk1/2 phosphorylation

Q: And the “reversal of bone loss compared with parathyroid hormone (1-34)” value ([6]; comparison with literature [Alexander et al, 2001])?
A: greater than the reversal of bone volumetric density by parathyroid hormone (1-34)

Q: And the “bone resorption, osteoclast counts (TRAP staining)” value ([6]; distal femoral metaphyseal trabecular bone)?
A: decreasing of osteoclast number; also recorded: markedly inhibited bone resorption

Q: And the “mineral appositional rate (MAR)” value ([6]; histomorphometry, calcein labeling)?
A: stimulated mineral appositional rate

Q: What about the “overall trabecular bone formation” value ([6]; histomorphometry, compared to sham- and vehicle-treated OVXed controls) of the same molecule?
A: stimulation of trabecular bone formation; also recorded: stimulation of overall bone formation

Q: And the “difference in trabecular bone volume density (BV/TV) vs controls” value ([6]; vs vehicle treated OVXed controls (so in the source))?
A: statistically insignificant

Q: What about the “shape of dose-response curves in culture” value ([7]; FIGS. 4A, 4B, peak stimulation of cell number followed by reversal to baseline) of the same molecule?
A: bell shaped

Q: And the “mitogenic effect by BrdU incorporation” value ([7]; MC3T3 E1 cells)?
A: confirmed

Q: And the osteoclast apoptosis [8]?
A: stimulating osteoclast apoptosis

Q: What about the “osteoclast survival (number of intact osteoclasts)” value [8] of the same molecule?
A: inhibition of osteoclast survival; also recorded: inhibits osteoclast survival

Q: What about the “mitogenic effect by BrdU incorporation” value [9] of the same molecule?
A: confirmed

Q: What about the “concentration of peak effect” value [1] of the same molecule?
A: 10^−11 M

Q: What about the “osteoblastic proliferation activity / potency” value [1] of the same molecule?
A: highest potency

Q: What about the cell number ([1]; at 10^−11 M concentration) of the same molecule?
A: more than doubling cell number

Q: What about the “osteoblastic proliferation activity / potency” value ([1]; listed as oleoyl serine) of the same molecule?
A: considerably more potent
